Test results from patent publication US8785457B2 (Cellzome Limited, priority 2009, dated 2014).
Like-named read-outs stand apart in the source and are kept apart here.

Key:
[1] = molecular target: T1, DNA-dependent protein kinase (DNA-PK) (Homo sapiens, UniProt P78527); experiment: kinobeads assay, DNA-PK; assay type: binding
T1 construct: endogenous in cells; host or cells: Jurkat, clone E6-1 (ATCC TIB-152) cell lysate
How it was run: (§1)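 IC50 values came from dose-response curves after test compound (1:3 series) competed with an immobilized phenylmorpholin-chromen affinity matrix for kinases in Jurkat lysate at 5 mg/mL protein. Eluted captured DNA-PK and PI3Kδ were measured by specific-antibody dot blot and infrared imaging. Buffer was Tris pH 7.4, NP40, MgCl2, NaCl, vanadate, DTT, NaF.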

PI3K delta (PI3 Kd) = molecular target: T2, PI3K delta (PI3 Kd) (Homo sapiens, UniProt O00329); experiment: kinobeads assay, PI3K delta; assay type: binding
T2 construct: endogenous in cells; host or cells: Jurkat, clone E6-1 (ATCC TIB-152) cell lysate
T2 sequence (O00329 whole entry): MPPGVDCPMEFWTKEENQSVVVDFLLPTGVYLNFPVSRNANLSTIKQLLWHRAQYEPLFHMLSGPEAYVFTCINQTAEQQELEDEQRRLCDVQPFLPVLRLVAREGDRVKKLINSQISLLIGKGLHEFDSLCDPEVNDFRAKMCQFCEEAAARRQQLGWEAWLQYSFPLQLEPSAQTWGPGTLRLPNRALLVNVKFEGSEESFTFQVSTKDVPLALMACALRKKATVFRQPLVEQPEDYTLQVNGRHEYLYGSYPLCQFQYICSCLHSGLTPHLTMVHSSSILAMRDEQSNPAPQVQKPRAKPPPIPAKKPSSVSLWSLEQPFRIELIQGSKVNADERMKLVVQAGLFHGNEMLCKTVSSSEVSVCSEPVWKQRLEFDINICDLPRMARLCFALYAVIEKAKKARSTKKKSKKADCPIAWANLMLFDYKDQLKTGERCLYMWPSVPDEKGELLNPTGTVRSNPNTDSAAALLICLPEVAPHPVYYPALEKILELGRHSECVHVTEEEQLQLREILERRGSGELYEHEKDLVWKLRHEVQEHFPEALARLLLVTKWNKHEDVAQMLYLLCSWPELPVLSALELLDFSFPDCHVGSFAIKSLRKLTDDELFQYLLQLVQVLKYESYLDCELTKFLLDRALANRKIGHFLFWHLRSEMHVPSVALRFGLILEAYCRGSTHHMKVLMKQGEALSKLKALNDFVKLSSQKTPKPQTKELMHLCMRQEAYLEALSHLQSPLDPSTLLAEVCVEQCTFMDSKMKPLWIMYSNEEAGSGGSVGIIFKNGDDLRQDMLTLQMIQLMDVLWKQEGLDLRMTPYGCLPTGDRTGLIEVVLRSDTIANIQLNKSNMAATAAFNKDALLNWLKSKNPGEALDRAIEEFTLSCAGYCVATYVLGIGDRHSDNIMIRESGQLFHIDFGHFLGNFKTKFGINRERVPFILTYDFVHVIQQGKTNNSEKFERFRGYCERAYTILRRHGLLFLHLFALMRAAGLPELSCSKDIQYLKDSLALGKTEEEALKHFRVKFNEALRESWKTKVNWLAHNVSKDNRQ
T2 sequence (P27986 whole entry partner): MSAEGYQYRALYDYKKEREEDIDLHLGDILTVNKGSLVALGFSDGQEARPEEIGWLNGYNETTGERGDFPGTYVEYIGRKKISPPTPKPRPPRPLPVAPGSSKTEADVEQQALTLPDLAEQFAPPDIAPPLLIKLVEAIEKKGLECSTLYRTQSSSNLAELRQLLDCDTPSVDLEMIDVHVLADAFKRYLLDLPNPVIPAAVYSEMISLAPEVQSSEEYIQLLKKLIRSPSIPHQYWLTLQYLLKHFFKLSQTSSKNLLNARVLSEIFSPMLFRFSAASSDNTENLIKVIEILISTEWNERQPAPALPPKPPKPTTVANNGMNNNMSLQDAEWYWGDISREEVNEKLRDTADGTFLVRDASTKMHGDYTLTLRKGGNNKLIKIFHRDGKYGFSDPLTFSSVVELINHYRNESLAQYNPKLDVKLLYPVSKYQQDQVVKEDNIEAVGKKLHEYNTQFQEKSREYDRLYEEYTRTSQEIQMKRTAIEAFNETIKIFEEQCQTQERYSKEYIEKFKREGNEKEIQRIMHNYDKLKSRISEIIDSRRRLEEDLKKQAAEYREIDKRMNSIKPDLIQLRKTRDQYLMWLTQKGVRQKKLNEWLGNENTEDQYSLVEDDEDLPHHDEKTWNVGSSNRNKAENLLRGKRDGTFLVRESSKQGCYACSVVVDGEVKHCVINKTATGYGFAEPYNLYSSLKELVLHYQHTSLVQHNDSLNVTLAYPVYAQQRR
How it was run: as §1

[2] = kinobeads assay, Table 4, read-out: Inhibition values (IC50) DNA-PK
[3] = kinobeads assay, Table 6, read-out: Inhibition values (IC50) DNAPK
[4] = kinobeads assay, Table 4, read-out: Inhibition values (IC50) PI3Kd
[5] = kinobeads assay, Table 6, read-out: Inhibition values (IC50) PI3Kd
[6] = Further Kinobeads Data, read-out: DNAPK
[7] = Further Kinobeads Data, read-out: PI3Kd

Row | Structure (SMILES) | IC50 [1, 2] [µM] | IC50 [1, 3] [µM] | IC50 (PI3K delta (PI3 Kd); [4]) [µM] | IC50 (PI3K delta (PI3 Kd); [5]) [µM] | IC50 [1, 6] [µM] | IC50 (PI3K delta (PI3 Kd); [7]) [µM]
1 | CCNC(=O)Nc1ccc(-c2nc3c(c(N4CCOC[C@@H]4C)n2)CN(C)C3)cc1 [Example 26, (S)-1-ethyl-3-(4-(6-methyl-4-(3-methylmorpholino)-6,7-dihydro-5H-pyrrolo[3,4-d]pyrimidin-2-yl)phenyl)urea] | > 10 | > 10 | > 10 | > 10 |  | 
2 | CC(C)C(=O)N1Cc2nc(-c3ccc(NC(=O)NC4CC4)cc3)nc(N3CCOC[C@@H]3C)c2C1 [Example 44, (S)-1-cyclopropyl-3-(4-(6-isobutyryl-4-(3-methylmorpholino)-6,7-dihydro-5H-pyrrolo[3,4-d]pyrimidin-2-yl)phenyl)urea] | > 10 | > 10 | > 10 | > 10 |  | 
3 | CCNC(=O)Nc1ccc(-c2nc3c(c(N4CCOC[C@@H]4C)n2)CN(S(C)(=O)=O)C3)cc1 [Example 32, (S)-1-ethyl-3-(4-(4-(3-methylmorpholino)-6-(methylsulfonyl)-6,7-dihydro-5H-pyrrolo[3,4-d]pyrimidin-2-yl)phenyl)urea] | > 10 | > 10 | > 10 | > 10 |  | 
4 | CC(=O)N1Cc2nc(-c3ccc(NC(=O)NC4CC4)cc3)nc(N3CCOC[C@@H]3C)c2C1 [Example 20, (S)-1-(4-(6-acetyl-4-(3-methylmorpholino)-6,7-dihydro-5H-pyrrolo[3,4-d]pyrimidin-2-yl)phenyl)-3-cyclopropylurea] | > 10 | > 10 | > 10 | > 10 |  | 
5 | CCNC(=O)Nc1ccc(-c2nc3c(c(N4CCOC[C@@H]4C)n2)CNCC3)cc1 [Example 12, (S)-1-ethyl-3-(4-(4-(3-methylmorpholino)-5,6,7,8-tetrahydropyrido[4,3-d]pyrimidin-2-yl)phenyl)urea] | > 10 | > 10 | > 10 | > 10 |  | 
6 | CNC(=O)Nc1ccc(-c2nc3c(c(N4CCOC[C@@H]4C)n2)CCNC3)cc1 [Example 16, (S)-1-methyl-3-(4-(4-(3-methylmorpholino)-5,6,7,8-tetrahydropyrido[3,4-d]pyrimidin-2-yl)phenyl)urea] | > 10 | > 10 | > 10 | > 10 |  | 
7 | CCNC(=O)Nc1ccc(-c2nc3c(c(N4CCOC[C@@H]4C)n2)CCN(CC2CC2)C3)cc1 [Example 37, (S)-1-(4-(7-(cyclopropylmethyl)-4-(3-methylmorpholino)-5,6,7,8-tetrahydropyrido[3,4-d]pyrimidin-2-yl)phenyl)-3-ethylurea] | > 10 | > 10 | > 10 | > 10 |  | 
8 | CCN1Cc2nc(-c3ccc(NC(=O)NC4CC4)cc3)nc(N3CCOC[C@@H]3C)c2C1 [Example 36, (S)-1-cyclopropyl-3-(4-(6-ethyl-4-(3-methylmorpholino)-6,7-dihydro-5H-pyrrolo[3,4-d]pyrimidin-2-yl)phenyl)urea] | > 10 | > 10 | > 10 | > 10 |  | 
9 | CCNC(=O)Nc1ccc(-c2nc3c(c(N4CCOC[C@@H]4C)n2)CN(CC)C3)cc1 [Example 39, (S)-1-ethyl-3-(4-(6-ethyl-4-(3-methylmorpholino)-6,7-dihydro-5H-pyrrolo[3,4-d]pyrimidin-2-yl)phenyl)urea] | > 10 | > 10 | > 10 | > 10 |  | 
10 | CCNC(=O)Nc1ccc(-c2nc3c(c(N4CCOC[C@@H]4C)n2)CCNC3)cc1 [Example 13, (S)-1-ethyl-3-(4-(4-(3-methylmorpholino)-5,6,7,8-tetrahydropyrido[3,4-d]pyrimidin-2yl)phenyl)urea] | > 10 | > 10 | > 10 | > 10 |  | 
11 | C[C@H]1COCCN1c1nc(-c2ccc(NC(=O)NC3CC3)cc2F)nc2c1CN(S(C)(=O)=O)C2 [Example 177, (S)-1-cyclopropyl-3-(3-fluoro-4-(4-(3-methylmorpholino)-6-(methylsulfonyl)-6,7-dihydro-5H-pyrrolo[3,4-d]pyrimidin-2-yl)phenyl)urea] |  |  |  |  | > 10 | > 10
12 | C[C@H]1COCCN1c1nc(-c2ccc(NC(=O)NC3CC3)cc2F)nc2c1CN(C)C2 [Example 147, (S)-1-cyclopropyl-3-(3-fluoro-4-(6-methyl-4-(3-methylmorpholino)-6,7-dihydro-5H-pyrrolo[3,4-d]pyrimidin-2-yl)phenyl)urea] |  |  |  |  | > 10 | > 10
13 | C[C@@H]1COCCN1c1nc(-c2ccc(NC(=O)NC3CC3)cc2F)nc2c1CN(S(C)(=O)=O)C2 [Example 191, (R)-1-cyclopropyl-3-(3-fluoro-4-(4-(3-methylmorpholino)-6-(methylsulfonyl)-6,7-dihydro-5H-pyrrolo[3,4-d]pyrimidin-2-yl)phenyl)urea] |  |  |  |  | > 10 | > 10
14 | CC(C)CN1CCc2c(nc(-c3ccc(NC(=O)NC4CC4)cc3)nc2N2CCOC[C@@H]2C)C1 [Example 42, (S)-1-cyclopropyl-3-(4-(7-isobutyl-4-(3-methylmorpholino)-5,6,7,8-tetrahydropyrido[3,4-d]pyrimidin-2-yl)phenyl)urea] | > 10 | > 10 | > 10 | > 10 |  | 
15 | CCOC(=O)N1Cc2nc(-c3ccc(NC(=O)NCCO)cc3F)nc(N3CCOCC3)c2C1 [Example 171, ethyl 2-(2-fluoro-4-(3-(2-hydroxyethyl)ureido)phenyl)-4-morpholino-5H-pyrrolo[3,4-d]pyrimidine-6(7H)-carboxylate] |  |  |  |  | 1 to 10 | > 10
16 | CCNC(=O)Nc1ccc(-c2nc3c(c(N4CCOC[C@@H]4C)n2)CN(Cc2ccc(F)cc2)C3)cc1 [Example 29, (S)-1-ethyl-3-(4-(6-(4-fluorobenzyl)-4-(3-methylmorpholino)-6,7-dihydro-5H-pyrrolo[3,4-d]pyrimidin-2-yl)phenyl)urea] | > 10 | > 10 | > 10 | > 10 |  | 
17 | CC(C)NC(=O)N1CCc2c(nc(-c3ccc(NC(=O)NC4CC4)cc3F)nc2N2CCOC[C@@H]2C)C1 [Example 189, (S)-2-(4-(3-cyclopropylureido)-2-fluorophenyl)-N-isopropyl-4-(3-methylmorpholino)-5,6-dihydropyrido[3,4-d]pyrimidine-7(8H)-carboxamide] |  |  |  |  | > 10 | > 10

Continued, values first:

Row | IC50 [1, 2] [µM] | IC50 [1, 3] [µM] | IC50 (PI3K delta (PI3 Kd); [4]) [µM] | IC50 (PI3K delta (PI3 Kd); [5]) [µM] | IC50 [1, 6] [µM] | IC50 (PI3K delta (PI3 Kd); [7]) [µM] | Structure (SMILES)
18 |  |  |  |  | > 10 | > 10 | CCNC(=O)Nc1cc(F)c(-c2nc3c(c(N4CCOC[C@@H]4C)n2)CN(C(=O)OCC)C3)cc1F [Example 141, (S)-ethyl 2-(4-(3-ethylureido)-2,5-difluorophenyl)-4-(3-methylmorpholino)-5H-pyrrolo[3,4-d]pyrimidine-6(7H)-carboxylate]
19 |  |  |  |  | > 10 | > 10 | CCNC(=O)Nc1ccc(-c2nc3c(c(N4CCOC[C@@H]4C)n2)CN(C)C3)c(F)c1 [Example 160, (S)-1-ethyl-3-(3-fluoro-4-(6-methyl-4-(3-methylmorpholino)-6,7-dihydro-5H-pyrrolo[3,4-d]pyrimidin-2-yl)phenyl)urea]
20 |  |  |  |  | > 10 | 1 to 10 | CCOC(=O)N1Cc2nc(-c3ccc(NC(=O)NCCO)cc3F)nc(N3CCOC[C@@H]3C)c2C1 [Example 167, (S)-Ethyl 2-(2-fluoro-4-(3-(2-hydroxyethyl)ureido)phenyl)-4-(3-methylmorpholino)-5H-pyrrolo[3,4-d]pyrimidine-6(7H)-carboxylate]
21 |  |  |  |  | > 10 | > 10 | CCNC(=O)Nc1ccc(-c2nc3c(c(N4CCOCC4)n2)CN(C(=O)OCC)C3)c(F)c1 [Example 151, Ethyl 2-(4-(3-ethylureido)-2-fluorophenyl)-4-morpholino-5H-pyrrolo[3,4-d]pyrimidine-6(7H)-carboxylate]
22 |  |  |  |  | > 10 | > 10 | COC(=O)N1Cc2nc(-c3ccc(NC(=O)NCCF)cc3F)nc(N3CCOC[C@@H]3C)c2C1 [Example 183, (S)-methyl 2-(2-fluoro-4-(3-(2-fluoroethyl)ureido)phenyl)-4-(3-methylmorpholino)-5H-pyrrolo[3,4-d]pyrimidine-6(7H)-carboxylate]
23 |  |  |  |  | 1 to 10 | > 10 | COC(=O)N1Cc2nc(-c3ccc(NC(=O)NC4CC4)cc3F)nc(N3CCOC[C@H]3C)c2C1 [Example 180, (R)-methyl 2-(4-(3-cyclopropylureido)-2-fluorophenyl)-4-(3-methylmorpholino)-5H-pyrrolo[3,4-d]pyrimidine-6(7H)-carboxylate]
24 |  |  |  |  | > 10 | 1 to 10 | CCOC(=O)N1Cc2nc(-c3ccc(NC(=O)NCCF)cc3F)nc(N3CCOC[C@@H]3C)c2C1 [Example 168, (S)-ethyl 2-(2-fluoro-4-(3-(2-fluoroethyl)ureido)phenyl)-4-(3-methylmorpholino)-5H-pyrrolo[3,4-d]pyrimidine-6(7H)-carboxylate]
25 |  |  |  |  | > 10 | > 10 | COC(=O)N1Cc2nc(-c3ccc(NC(=O)NC4CC4)cc3F)nc(N3CCOC[C@@H]3C)c2C1 [Example 146, (S)-methyl 2-(4-(3-cyclopropylureido)-2-fluorophenyl)-4-(3-methylmorpholino)-5H-pyrrolo[3,4-d]pyrimidine-6(7H)-carboxylate]
26 |  |  |  |  | > 10 | > 10 | CC(=O)N1Cc2nc(-c3ccc(NC(=O)NC4CC4)cc3F)nc(N3CCOC[C@@H]3C)c2C1 [Example 155, (S)-1-(4-(6-acetyl-4-(3-methylmorpholino)-6,7-dihydro-5H-pyrrolo[3,4-d]pyrimidin-2-yl)-3-fluorophenyl)-3-cyclopropylurea]
27 |  |  |  |  | > 10 | > 10 | CC(C)N1Cc2nc(-c3ccc(NC(=O)NCCO)cc3F)nc(N3CCOC[C@@H]3C)c2C1 [Example 187, (S)-1-(3-fluoro-4-(6-isopropyl-4-(3-methylmorpholino)-6,7-dihydro-5H-pyrrolo[3,4-d]pyrimidin-2-yl)phenyl)-3-(2-hydroxyethyl)urea]
